Source: US4684650A, “Antihypertensive fluorophenylindanyl imidazolidinoneethylpiperazines” (priority 1984, dated 1987)
Like-named read-outs stand apart in the source and are kept apart here.

Legend:
[1] = tested on: methylphenidate induced stereotypies; assay: Methylphenidate Antagonism; assay type: in vivo, mice; conditions: for ED50: Mus musculus, ip, read-out: MePh antg. ED50, i.p., mice, 2 hours before methylphenidate 60 mg/kg s.c.; for MePh antg. ED50: i.p., mice, 2 hours before methylphenidate 60 mg/kg s.c.
Method: The experiments were made as described by Pedersen and Christensen (1972) Acta Pharmacol. et Toxicol. 31, 488-496.--Briefly, test compounds or saline were injected i.p. 2 hours before methylphenidate, 60 mg/kg s.c. 3 pairs of mice were used for each dose level. After methylphenidate injection the mice were placed in observation cages for one hour. The cages were placed on corrugated paper, the corrugation facing upwards.

[2] = tested on: 1-5-HTP-induced head shakes; assay: 1-5-HTP-induced head shakes; assay type: in vivo; conditions: rats, 1-5-HTP 75 mg/kg i.p. after citalopram; for ED50: Rattus norvegicus, sc, read-out: 1-5-HTP-antg. ED50; for 1-5-HTP-antg. ED50: s.c.
Method: The rats were pretreated subcutaneously with test compound or saline simultaneously with or 90 min before injection of citalopram (10 mg/kg s.c.).
Each group consisted of 4-12 rats.

5-HT2 receptors = biological target: T1, 5-HT2 receptors (Rattus norvegicus, UniProt P14842); assay: 3H-spiroperidol binding to 5-HT2 receptors; conditions: rat whole cortex, 0.5 nM 3H-spiroperidol, 0.3 μM sulpiride; read-out: 3H-SPI binding 5-HT2 IC50
T1 construct: Rat whole cortex was homogenized by an Ultra Turrax homogenizer; from tissue; host or cells: rat whole cerebral cortex, crude washed membranes
T1 sequence (P14842 whole entry): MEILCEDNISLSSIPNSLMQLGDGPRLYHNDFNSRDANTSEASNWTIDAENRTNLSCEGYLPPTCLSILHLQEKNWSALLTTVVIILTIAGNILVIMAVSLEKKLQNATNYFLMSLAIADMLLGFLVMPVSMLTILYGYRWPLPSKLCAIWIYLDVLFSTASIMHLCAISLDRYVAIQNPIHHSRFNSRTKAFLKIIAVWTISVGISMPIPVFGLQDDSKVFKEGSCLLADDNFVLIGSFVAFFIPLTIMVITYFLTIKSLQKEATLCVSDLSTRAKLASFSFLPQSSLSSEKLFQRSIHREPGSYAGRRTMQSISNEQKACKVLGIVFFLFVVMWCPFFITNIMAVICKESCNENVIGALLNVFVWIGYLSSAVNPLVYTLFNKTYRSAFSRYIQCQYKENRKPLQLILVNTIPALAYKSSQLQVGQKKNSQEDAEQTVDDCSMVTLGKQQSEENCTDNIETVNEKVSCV
Method: ^3 H-spiroperidol binding to 5-HT2 receptors.
Rat whole cortex was homogenized by an Ultra Turrax homogenizer in 100 vol. of 50 mM Tris buffer pH 7.7. The homogenate was centrifuged at 20,000 g for 10 minutes at 4° C. The pellet was rehomogenized in another volume of buffer and centrifuged as mentioned above. The final pellet was rehomogenized in 50 mM Tris buffer pH 7.7 containing 120 mM NaCl, 5 mM KCl, 2 mM CaCl2 and 1 mM MgCl2 (ion mix) in a volume corresponding to 12.5 mg original tissue per ml.
Test drugs were dissolved in water; ^3 H-spiroperidol (NEN, 28-30 Ci/mmol) was diluted in 3 μM sulpiride, and 800 μl membrane suspension were added. Final concentration of ligand and sulpiride were 0.5 nM and 0.3 μM, respectively. The samples were incubated at 37° C. for 10 min. The samples were then filtered under vacuum through Whatman GF/B glass-fiber filters. The tubes were then rinsed with 5 ml incubation buffer, which was poured on the filters. The filters were finally washed twice with 5 ml buffer and placed in counting vials. After addition of 5 ml scintillation fluid (Lumagel) radioactivity was estimated by liquid scintillation counting. Non-specific binding was obtained by adding Mianserin (1 μM) to separate samples. Each drug was tested at least twice at 5 concentrations in triplicate. IC50-values were determined from log concentration-response curves.--The presence of sulpiride excluded binding to dopamine D-2 receptors.

[3] = tested on: spontaneous hypertensive rats (SHR); assay: Antihypertensive effect in spontaneous hypertensive rats (SHR); assay type: in vivo; conditions: for change in vivo at 5 mg/kg / ED10: Rattus norvegicus, ip; for change in vivo at 5 mg/kg: 1 h; for peripheral or central action: in words; for Antihypertensive eff. SHR, max eff. in % of 5 mg/kg ip, DAP: diastolic pressure (DAP); for Antihypertensive eff. SHR, max eff. in % of 5 mg/kg ip, DAP / Antihypertensive eff. SHR, max eff. in % of 5 mg/kg ip, SAP: max change within one hour; for Antihypertensive eff. SHR, max eff. in % of 5 mg/kg ip, SAP: systolic pressure (SAP)
Method: Antihypertensive effect in spontaneous hypertensive rats (SHR)
The femoral artery of male SHR is cannulated in anaestesia for blood pressure recordings. After a stabilization period of 11/2 h after discontinuation of the anaesthesia initial blood pressure curves are recorded and the systolic (SAP)/diastolic (DAP) pressure determined (-20, -10, 0, min. p.i.) Test substance is injected i.p. and the pressure curve recorded for one hour. The change in SAP/DAP is calculated in percent at mean initial values at different times (10, 20, 30, 40, 50 and 60 minutes after injection). At least two SHR are used per dose level. The maximum change is used for estimation of the drug effect.

5-HT pressor responses = assay: Antagonism to 5-HT pressor responses in pithed rats; assay type: in vivo; conditions: for change in vivo at 0.02 mg/kg / ED50: Rattus norvegicus, iv; for change in vivo at 0.02 mg/kg: read-out: Effects on pressor response of 5-HT, % eff. of 0.02 mg/kg, pithed rats, 0.02 mg/kg, jugular vein; for ED50: read-out: Effects on pressor response of 5-HT, ED50, pithed rats, jugular vein
Method: (§1) The rat is anaesthetized with ether, tracheotomized, artificial respired and pithed. The knitting-needle is introduced through the right orbita into the cranial cavity and passed through foramen magnum into the spinal canal as far as possible. The spinal cord is destroyed by turning the needle. After vagotomi both carotides are ligated and a catheter placed in the right one for pressure recording. The rat is adrenalectomized. […] The initial and post medication mean pressor effect is calculated, and the mean pressor effect is calculated as % of the initial value. Two to five preparations are employed for each dose level. The ED50 is determined.

[4] = tested on: phenylephrine pressor responses; assay: Antagonism to phenylephrine pressor responses in pithed rats; assay type: in vivo; conditions: for ED50: Rattus norvegicus, iv, read-out: Effects on pressor response of Phenylephrine, ED50; for Phenylephr. antg./5-HT antg. (ratio): pithed rats, ratio of phenylephrine ED50 to 5-HT ED50
Method: as §1

[5] = read-out: Antihypertensive eff. SHR, max eff. in % of 5 mg/kg ip, DAP, 5 mg/kg ip, diastolic pressure (DAP), max change within one hour
[6] = read-out: Antihypertensive eff. SHR, max eff. in % of 5 mg/kg ip, SAP, 5 mg/kg ip, systolic pressure (SAP), max change within one hour
[7] = read-out: Antihypertensive eff. SHR, ED10 DAP
[8] = read-out: Antihypertensive eff. SHR, ED10 SAP

Compound	ED50 [1]	activity against methylphenidate induced stereotypies ([1]; in words)	ED50 [2]	IC50 (5-HT2 receptors)	change in vivo at 5 mg/kg [3, 5]	change in vivo at 5 mg/kg [3, 6]	peripheral or central action [3]	change in vivo at 0.02 mg/kg (5-HT pressor responses)	ED50 (5-HT pressor responses)	ED50 [4]	Phenylephr. antg./5-HT antg. (ratio) [4]	ED10 [3, 7]	ED10 [3, 8]	Antihypertensive eff. SHR, max eff. in % of 5 mg/kg ip, SAP/DAP (inactive) [3]	Antihypertensive eff. SHR, max eff. in % of 5 mg/kg ip, DAP [3]	Antihypertensive eff. SHR, max eff. in % of 5 mg/kg ip, SAP [3]	Effects on pressor response of 5-HT, % eff. of 0.02 mg/kg (5-HT pressor responses; pithed rats, jugular vein)	MePh antg. ED50 [1]	1-5-HTP-antg. ED50 [2]	Effects on pressor response of 5-HT, ED50 (5-HT pressor responses; pithed rats, jugular vein)
OCCN1CCN([C@@H]2C[C@@H](c3ccc(F)cc3)c3ccc(C(F)(F)F)cc32)CC1 (racemic) [Tefludazine, (±)trans-4-[3-(4-fluorophenyl)-6-(trifluoromethyl)-indan-1-yl]-1-piperazineethanol, reference compound]	0.06 µmol/kg	high activity	0.039 µmol/kg	0.0086 µM	-24%	-18%	marked central effects	-78%	0.015 µmol/kg	1.7 µmol/kg	115	–	–	–	–	–	–	–	–	–
O=C1NCCN1CCN1CCN([C@@H]2C[C@@H](c3ccc(F)cc3)c3ccccc32)CC1 (relative stereo) [compound 1]	> 98 µmol/kg	–	1.3 µmol/kg	0.025 µM	-43%	-33%	–	-68%	0.024 µmol/kg	3.13 µmol/kg	–	4.2 µmol/kg	5.9 µmol/kg	–	–	–	–	–	–	–
O=C1NCCN1CCN1CCN([C@@H]2C[C@@H](c3ccc(F)cc3)c3ccc(F)cc32)CC1 (relative stereo) [compound 2]	79 µmol/kg	–	0.13 µmol/kg	0.0067 µM	-19%	-14%	–	-89%	0.017 µmol/kg	2.55 µmol/kg	150	4.1 µmol/kg	9.2 µmol/kg	–	–	–	–	–	–	–
CN1CCN(CCN2CCN([C@@H]3C[C@@H](c4ccc(F)cc4)c4ccc(F)cc43)CC2)C1=O (relative stereo) [compound 3]	> 78 µmol/kg	–	0.08 µmol/kg	0.0034 µM	-13%	-11%	–	-87%	0.01 µmol/kg	14 µmol/kg	1400	–	–	–	–	–	–	–	–	–
Cc1ccc2c(c1)[C@H](N1CCN(CCN3CCNC3=O)CC1)C[C@H]2c1ccc(F)cc1 (relative stereo) [compound 4, Trans-1-[3-(4-fluorophenyl)-6-methylindan-1-yl]-4-[2-(2-imidazolidinon-1-yl)ethyl]piperazine]	27 µmol/kg	–	0.13 µmol/kg	0.023 µM	-32%	-27%	–	-73%	0.017 µmol/kg	2.02 µmol/kg	119	2.4 µmol/kg	3.3 µmol/kg	–	–	–	–	–	–	–
Cc1ccc2c(c1)[C@H](N1CCN(CCN3CCOC3=O)CC1)C[C@H]2c1ccc(F)cc1 (relative stereo) [compound 9]	29 µmol/kg	–	0.45 µmol/kg	0.021 µM	-41%	-32%	–	-73%	0.02 µmol/kg	1.51 µmol/kg	76	3.5 µmol/kg	4.5 µmol/kg	–	–	–	–	–	–	–
CC(C)N1CCN(CCN2CCN([C@@H]3C[C@@H](c4ccc(F)cc4)c4ccc(F)cc43)CC2)C1=O (relative stereo) [compound 13]	> 73 µmol/kg	–	0.11 µmol/kg	0.0052 µM	-5%	-5%	marked central effects	-79%	–	–	–	–	–	–	–	–	–	–	–	–
O=c1[nH]c2ccccc2n1CCN1CCN([C@@H]2C[C@@H](c3ccc(F)cc3)c3ccc(F)cc32)CC1 (relative stereo) [compound 16]	> 72 µmol/kg	–	0.28 µmol/kg	0.0097 µM	-11%	-15%	–	-52%	–	–	–	–	–	–	–	–	–	–	–	–
O=C1CCCN1CCN1CCN([C@@H]2C[C@@H](c3ccc(F)cc3)c3ccc(F)cc32)CC1 (relative stereo) [compound 18]	18 µmol/kg	–	0.76 µmol/kg	0.012 µM	–	–	–	-67%	–	–	–	–	–	I	–	–	–	–	–	–
CN1CCC(CCN2CCN([C@H]3C[C@H](c4ccc(F)cc4)c4ccccc43)CC2)C1=O (relative stereo) [compound 23]	> 61 µmol/kg	–	1.4 µmol/kg	0.016 µM	–	–	–	–	–	–	–	–	–	–	-43%	-31%	-38%	–	–	–
O=C1NCCCN1CCN1CCN([C@@H]2C[C@@H](c3ccc(F)cc3)c3ccc(F)cc32)CC1 (relative stereo) [compound 25]	> 59 µmol/kg	–	1.2 µmol/kg	0.012 µM	–	–	–	-60%	–	–	–	–	–	I	–	–	–	–	–	–
Fc1ccc([C@@H]2C[C@@H](N3CCN(CCN4CCNC4=S)CC3)c3ccccc32)cc1 (relative stereo) [compound 27, Trans-1-[3-(4-fluorophenyl)-indan-1-yl]-4-[2-(imidazolidin-2-thion-1-yl)ethyl]piperazine]	> 61 µmol/kg	–	0.48 µmol/kg	0.0047 µM	-29%	-18%	–	-71%	–	–	–	–	–	–	–	–	–	–	–	–
Fc1ccc([C@@H]2C[C@@H](N3CCN(CCN4CCNC4=S)CC3)c3cc(F)ccc32)cc1 (single isomer, unassigned) [+24]	17 µmol/kg	–	0.03 µmol/kg	0.0025 µM	-40%	-32%	–	-88%	–	–	–	–	–	–	–	–	–	–	–	–
O=C1NCCN1CCN1CCN([C@@H]2C[C@@H](c3ccc(F)cc3)c3ccccc32)CC1 (single isomer, unassigned) [-1]	–	–	–	0.13 µM	–	–	–	–	–	–	–	–	–	–	-11%	-3%	-11%	> 97 µmol/kg	8.9 µmol/kg	–
O=C1NCCN1CCN1CCN([C@@H]2C[C@@H](c3ccc(F)cc3)c3ccc(F)cc32)CC1 (single isomer, unassigned) [-2]	–	–	–	0.32 µM	–	–	–	2%	–	–	–	–	–	–	+4%	+6%	–	> 61 µmol/kg	20 µmol/kg	1.43 µmol/kg
CN1CCN(CCN2CCN([C@@H]3C[C@@H](c4ccc(F)cc4)c4ccc(F)cc43)CC2)C1=O (single isomer, unassigned) [-3]	–	–	–	0.41 µM	–	–	–	–	–	–	–	–	–	I	–	–	-6%	> 91 µmol/kg	45 µmol/kg	–
